The results in this text go back to US20230165873A1, “Methods of Use for Single Molecule Compounds Providing Multi-Target Inhibition to Treat Covid 19” (priority 2020, published 2023).

The target of assay [1] is T1, BRD4-1 (Homo sapiens, UniProt O60885).
T1 construct: BRD4-1
Put plainly: BRD4-1 in vitro inhibition. Type of assay: binding. How it is done: (§1) The kinase or bromodomain inhibitory activity of a compound of the invention can be determined by routine methods known to the skilled artisan without undue experimentation, or by procuring relevant analysis by a commercial vendor offering such services. […] In vivo, PI3K inhibition can be determined from target tissue biopsies by standard tissue processing in which cells are disrupted and Western Blot analysis is performed to determine the presence or absence of pAKT (substrate of PI3K) relative to a control sample. PI3K inhibition assays and BTK inhibition assays are known in the art and can be procured commercially through vendors such as Reaction Biology (Malvern, PA). The activity of a compound of the invention as an inhibitor of a bromodomain-containing protein, such as a BET protein, including BRD2, BRD3, BRD4, and/or BRDT, or an isoform or mutant thereof, may be determined in vitro, in vivo, or in a cell line. In vitro assays include assays that determine inhibition of bromodomain-containing proteins. Alternatively, inhibitor binding may be determined by running a competition experiment where a provided compound is incubated with a bromodomain-containing protein, such as a BET protein bound to known ligands, labeled or unlabeled. In vitro bromodomain inhibition assays can be performed using Alpha Screen Technology (Perkin Elmer Life and Analytical Sciences, Shelton, CT). In vivo bromodomain inhibition can be determined indirectly by evaluating the amount of a protein whose gene transcription is influenced or controlled by the bromodomain protein, for example, MYCN protein transcription is controlled by BRD4 (J.E. Delmore et al., Cell 2011, 146, 904-917; A. Puissant, Cancer Discov. 2013, 3, 308-323).

Assay [2] deals with T2, BRD4-2 (Homo sapiens, UniProt O60885).
T2 construct: BRD4-2
The assay can be described thus: BRD4-2 in vitro inhibition. Type of assay: binding. As to the method:
as §1

For assay [3], the target named is PI3K alpha (Homo sapiens, UniProt P42336). The assay can be described thus: PI3K alpha in vitro inhibition. The format is biochemical. As to the method: as §1
Chain of PI3K alpha (P42336 whole entry): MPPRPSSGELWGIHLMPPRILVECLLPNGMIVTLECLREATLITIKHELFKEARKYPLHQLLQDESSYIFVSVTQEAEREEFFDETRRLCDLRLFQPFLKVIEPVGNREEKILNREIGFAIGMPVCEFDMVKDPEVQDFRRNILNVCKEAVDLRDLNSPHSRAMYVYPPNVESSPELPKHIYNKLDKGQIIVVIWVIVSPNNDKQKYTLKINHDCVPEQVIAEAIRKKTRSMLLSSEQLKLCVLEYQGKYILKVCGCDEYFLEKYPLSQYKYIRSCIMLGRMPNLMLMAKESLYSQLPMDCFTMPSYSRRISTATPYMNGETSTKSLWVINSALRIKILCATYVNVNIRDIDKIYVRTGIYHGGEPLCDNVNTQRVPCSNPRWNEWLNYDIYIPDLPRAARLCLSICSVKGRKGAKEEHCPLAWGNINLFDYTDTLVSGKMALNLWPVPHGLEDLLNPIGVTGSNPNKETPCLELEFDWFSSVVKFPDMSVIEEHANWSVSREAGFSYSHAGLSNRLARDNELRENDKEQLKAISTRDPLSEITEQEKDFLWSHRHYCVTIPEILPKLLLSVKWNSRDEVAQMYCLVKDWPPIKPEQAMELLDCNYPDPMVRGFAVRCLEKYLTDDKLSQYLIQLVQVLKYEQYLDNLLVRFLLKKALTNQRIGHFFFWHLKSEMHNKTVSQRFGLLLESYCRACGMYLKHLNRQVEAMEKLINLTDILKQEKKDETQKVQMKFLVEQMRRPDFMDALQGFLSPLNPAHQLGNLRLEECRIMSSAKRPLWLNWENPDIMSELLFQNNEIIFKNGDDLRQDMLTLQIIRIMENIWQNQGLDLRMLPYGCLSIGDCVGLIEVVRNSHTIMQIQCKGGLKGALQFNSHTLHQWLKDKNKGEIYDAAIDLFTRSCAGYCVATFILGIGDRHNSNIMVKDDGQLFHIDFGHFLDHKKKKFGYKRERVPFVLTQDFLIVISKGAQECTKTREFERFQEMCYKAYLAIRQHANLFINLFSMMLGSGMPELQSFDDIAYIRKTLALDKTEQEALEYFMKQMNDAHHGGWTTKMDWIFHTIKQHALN
Chain of PI3K alpha (P27986 whole entry partner): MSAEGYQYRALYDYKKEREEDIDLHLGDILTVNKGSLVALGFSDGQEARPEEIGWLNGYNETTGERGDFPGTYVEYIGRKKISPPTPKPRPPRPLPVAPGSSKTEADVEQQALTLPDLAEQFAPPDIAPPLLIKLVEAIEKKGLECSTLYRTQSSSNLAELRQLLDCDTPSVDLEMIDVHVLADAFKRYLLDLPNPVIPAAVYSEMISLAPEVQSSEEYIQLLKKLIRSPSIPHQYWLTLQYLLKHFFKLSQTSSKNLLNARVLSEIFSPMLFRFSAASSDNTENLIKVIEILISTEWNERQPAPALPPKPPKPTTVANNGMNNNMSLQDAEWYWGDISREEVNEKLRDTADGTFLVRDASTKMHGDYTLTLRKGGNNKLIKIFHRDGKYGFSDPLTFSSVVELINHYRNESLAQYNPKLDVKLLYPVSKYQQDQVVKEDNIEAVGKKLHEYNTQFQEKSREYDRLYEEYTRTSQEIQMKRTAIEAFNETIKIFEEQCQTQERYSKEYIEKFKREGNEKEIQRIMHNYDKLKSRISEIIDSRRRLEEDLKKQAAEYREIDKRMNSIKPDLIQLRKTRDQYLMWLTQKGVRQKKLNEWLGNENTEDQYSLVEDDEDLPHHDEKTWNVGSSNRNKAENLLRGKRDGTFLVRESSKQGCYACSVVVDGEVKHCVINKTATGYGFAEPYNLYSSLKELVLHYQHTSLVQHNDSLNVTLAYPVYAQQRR
For assay [4], the target named is PI3K beta (Homo sapiens, UniProt P42338). The assay can be described thus: PI3K beta in vitro inhibition. Type of assay: biochemical. How it is done: as §1
Chain of PI3K beta (P42338 whole entry): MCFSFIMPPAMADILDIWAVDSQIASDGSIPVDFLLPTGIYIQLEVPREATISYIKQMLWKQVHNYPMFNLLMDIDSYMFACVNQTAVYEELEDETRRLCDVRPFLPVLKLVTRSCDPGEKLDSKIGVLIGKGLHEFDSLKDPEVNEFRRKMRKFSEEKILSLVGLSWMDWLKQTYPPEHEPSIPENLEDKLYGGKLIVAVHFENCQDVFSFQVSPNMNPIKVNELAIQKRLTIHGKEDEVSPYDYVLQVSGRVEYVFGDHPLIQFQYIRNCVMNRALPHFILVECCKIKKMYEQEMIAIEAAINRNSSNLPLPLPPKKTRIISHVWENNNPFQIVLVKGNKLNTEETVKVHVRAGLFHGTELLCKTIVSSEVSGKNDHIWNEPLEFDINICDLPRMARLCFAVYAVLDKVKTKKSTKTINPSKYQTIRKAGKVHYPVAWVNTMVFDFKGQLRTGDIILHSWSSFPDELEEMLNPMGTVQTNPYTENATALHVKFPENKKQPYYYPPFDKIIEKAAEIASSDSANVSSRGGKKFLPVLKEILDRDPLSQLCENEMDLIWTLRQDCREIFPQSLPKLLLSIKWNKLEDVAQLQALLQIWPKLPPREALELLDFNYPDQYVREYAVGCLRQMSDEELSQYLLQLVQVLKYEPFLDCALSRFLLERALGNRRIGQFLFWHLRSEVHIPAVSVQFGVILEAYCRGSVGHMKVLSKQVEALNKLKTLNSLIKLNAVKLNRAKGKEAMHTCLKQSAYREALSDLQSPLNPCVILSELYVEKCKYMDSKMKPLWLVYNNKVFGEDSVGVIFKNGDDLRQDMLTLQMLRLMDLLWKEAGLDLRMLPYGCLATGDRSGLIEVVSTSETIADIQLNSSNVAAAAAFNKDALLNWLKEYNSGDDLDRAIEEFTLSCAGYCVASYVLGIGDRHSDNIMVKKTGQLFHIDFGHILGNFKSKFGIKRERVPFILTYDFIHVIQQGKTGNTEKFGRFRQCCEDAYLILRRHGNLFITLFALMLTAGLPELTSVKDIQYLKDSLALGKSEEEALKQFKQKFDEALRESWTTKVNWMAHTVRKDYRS
Chain of PI3K beta (P27986 whole entry partner): as the sequence (P27986 whole entry partner) above
Assay [5] addresses PI3K gamma (Homo sapiens, UniProt P48736). The assay can be described thus: PI3K gamma in vitro inhibition. Type of assay: biochemical. Particulars: read-out: IC50 inhibition PI3K gamma. As to the method:
as §1
(§2) IC50 inhibition data against the indicated targets were determined for compounds of the invention using standard in vitro assays (Tables 8 and 9).

For assay [6], the target named is CDK4 cyclinD1 (Homo sapiens, UniProt P11802). The assay can be described thus: CDK4 cyclinD1 in vitro inhibition. The format is biochemical. As to the method:
as §1, §2

The target of assay [7] is CDK6 cyclinD1 (Homo sapiens, UniProt Q00534). The assay can be described thus: CDK6 cyclinD1 in vitro inhibition. The format is biochemical. How it is done: as §1, §2
Chain of CDK6 cyclinD1 (Q00534 whole entry): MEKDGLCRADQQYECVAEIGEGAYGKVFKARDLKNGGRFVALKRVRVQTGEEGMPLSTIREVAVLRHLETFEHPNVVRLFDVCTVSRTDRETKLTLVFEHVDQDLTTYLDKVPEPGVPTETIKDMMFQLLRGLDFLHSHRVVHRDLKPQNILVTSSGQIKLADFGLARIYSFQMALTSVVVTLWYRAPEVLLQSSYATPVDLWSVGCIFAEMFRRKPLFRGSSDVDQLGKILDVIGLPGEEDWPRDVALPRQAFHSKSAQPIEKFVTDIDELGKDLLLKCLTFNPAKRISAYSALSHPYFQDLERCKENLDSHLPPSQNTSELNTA
Chain of CDK6 cyclinD1 (P24385 whole entry partner): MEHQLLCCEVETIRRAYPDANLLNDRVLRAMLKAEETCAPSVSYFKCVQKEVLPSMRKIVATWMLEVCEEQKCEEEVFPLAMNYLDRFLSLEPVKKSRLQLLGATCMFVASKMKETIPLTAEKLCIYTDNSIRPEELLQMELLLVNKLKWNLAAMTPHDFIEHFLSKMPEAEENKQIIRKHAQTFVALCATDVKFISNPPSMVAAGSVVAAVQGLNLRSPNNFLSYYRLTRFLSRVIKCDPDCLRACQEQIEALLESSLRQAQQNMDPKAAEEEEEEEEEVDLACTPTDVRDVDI

Chain of CDK4 cyclinD1 (P11802 whole entry): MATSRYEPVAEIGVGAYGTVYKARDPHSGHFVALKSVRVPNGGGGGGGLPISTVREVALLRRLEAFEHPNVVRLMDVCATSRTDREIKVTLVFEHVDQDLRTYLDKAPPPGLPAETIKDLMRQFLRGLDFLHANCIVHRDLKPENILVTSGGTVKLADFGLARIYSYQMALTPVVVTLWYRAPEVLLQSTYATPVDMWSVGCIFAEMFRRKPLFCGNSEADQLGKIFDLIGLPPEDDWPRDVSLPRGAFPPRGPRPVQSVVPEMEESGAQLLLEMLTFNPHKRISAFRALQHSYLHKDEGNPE
Chain of CDK4 cyclinD1 (P24385 whole entry partner): as the sequence (P24385 whole entry partner) above
Chain of PI3K gamma (P48736 whole entry): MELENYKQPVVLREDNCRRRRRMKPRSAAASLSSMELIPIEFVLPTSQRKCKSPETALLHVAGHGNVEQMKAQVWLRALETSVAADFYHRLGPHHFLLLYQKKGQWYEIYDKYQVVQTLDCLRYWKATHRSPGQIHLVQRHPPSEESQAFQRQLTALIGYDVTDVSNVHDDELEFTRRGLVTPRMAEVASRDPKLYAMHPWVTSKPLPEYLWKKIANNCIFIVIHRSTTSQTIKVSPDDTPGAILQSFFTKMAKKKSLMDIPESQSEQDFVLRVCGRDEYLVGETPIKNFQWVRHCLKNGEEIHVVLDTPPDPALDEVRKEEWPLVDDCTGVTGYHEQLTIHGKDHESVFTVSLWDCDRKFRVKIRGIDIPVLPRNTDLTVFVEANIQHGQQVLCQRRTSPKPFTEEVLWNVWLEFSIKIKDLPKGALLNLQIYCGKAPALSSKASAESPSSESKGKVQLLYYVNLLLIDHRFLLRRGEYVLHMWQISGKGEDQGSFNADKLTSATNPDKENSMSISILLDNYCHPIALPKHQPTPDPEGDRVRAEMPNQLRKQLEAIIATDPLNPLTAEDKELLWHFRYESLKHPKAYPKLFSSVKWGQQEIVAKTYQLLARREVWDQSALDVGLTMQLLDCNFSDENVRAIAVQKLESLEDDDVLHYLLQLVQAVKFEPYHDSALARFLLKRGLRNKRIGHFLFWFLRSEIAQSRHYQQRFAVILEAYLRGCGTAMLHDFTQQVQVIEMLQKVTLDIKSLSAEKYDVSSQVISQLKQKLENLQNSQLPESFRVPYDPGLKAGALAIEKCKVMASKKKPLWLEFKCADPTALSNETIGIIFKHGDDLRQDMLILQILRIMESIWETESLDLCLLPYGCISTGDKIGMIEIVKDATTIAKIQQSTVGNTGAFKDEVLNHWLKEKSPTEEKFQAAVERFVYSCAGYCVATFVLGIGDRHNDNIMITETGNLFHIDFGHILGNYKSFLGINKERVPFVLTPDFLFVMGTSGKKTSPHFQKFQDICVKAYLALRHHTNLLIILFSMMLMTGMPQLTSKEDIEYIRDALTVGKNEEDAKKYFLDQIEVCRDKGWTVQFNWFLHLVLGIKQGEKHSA

On to `O=c1cc(N2CCNCC2)oc2c(-c3ccc4c(c3)OCCO4)csc12` [Compound 1], for which the half-inhibitory concentration (IC50) (as a rule, the concentration that inhibits the measured activity by half) in assay [1] was less than 500 nM; in assay [2] it was 10000 to 45000 nM; in assay [3], more than 45000 nM; in assay [4], 10000 to 45000 nM; in assay [5], more than 45000 nM.

In the case of `O=C(NCc1cccnc1)c1cc(-c2csc3c(=O)cc(N4CCOCC4)oc23)cc2c1OCCO2` [Compound 2], the IC50 in assay [1], in assay [2], in assay [3], in assay [4] and in assay [5] was less than 500 nM in each case.

Take `O=C(NCc1cccnc1)c1cc(-c2csc3c(=O)cc(N4CCNCC4)oc23)cc2c1OCCO2` [Compound 3]: the IC50 was less than 500 nM in assay [1]; 1000 to 10000 nM in assay [2]; 1000 to 10000 nM in assay [3]; 1000 to 10000 nM in assay [4]; 10000 to 45000 nM in assay [5].

As for `CN1CCN(c2cc(=O)c3scc(-c4cc5c(c(C(=O)NCc6cccnc6)c4)OCCO5)c3o2)CC1` [Compound 4], the IC50 in assay [1] was less than 500 nM; in assay [2], 1000 to 10000 nM; in assay [3], 10000 to 45000 nM; in assay [4] it was 1000 to 10000 nM; in assay [5], 10000 to 45000 nM.

As for `COC(=O)c1cc(-c2csc3c(=O)cc(N4CCN(C(=O)OC(C)(C)C)CC4)oc23)cc2c1OCCO2` [Compound 5], the IC50 is less than 500 nM in assay [1]; more than 45000 nM in assay [2]; less than 500 nM in assay [3]; 1000 to 10000 nM in assay [4]; less than 500 nM in assay [5].

For `CN(C)C(=O)c1cc2cnc(Nc3ccc(-c4csc5c(=O)cc(N6CCOCC6)oc45)cn3)nc2n1C1CCCC1` [Compound 8], the IC50 in assay [1] is less than 500 nM; in assay [2], less than 500 nM; in assay [3], less than 500 nM; in assay [4], less than 500 nM; in assay [5], 500 to 1000 nM; in assay [6], less than 500 nM. The compound further showed an IC50 in assay [7] of less than 500 nM.

As for `CN(C)C(=O)c1cc2cnc(Nc3ccc(-c4csc5c(=O)cc(N6CCNCC6)oc45)cc3)nc2n1C1CCCC1` [Compound 9], the IC50 is less than 500 nM in assay [1]; 500 to 1000 nM in assay [2]; 10000 to 45000 nM in assay [3]; 10000 to 45000 nM in assay [4]; 10000 to 45000 nM in assay [5]; less than 500 nM in assay [6]. In assay [7], the IC50 was less than 500 nM.

As for `CN(C)C(=O)c1cc2cnc(Nc3ccc(-c4csc5c(=O)cc(N6CCN(C(=O)OC(C)(C)C)CC6)oc45)cc3)nc2n1C1CCCC1` [Compound 10], the IC50 in assay [1] was 500 to 1000 nM; in assay [2] it was 1000 to 10000 nM; in assay [3], 1000 to 10000 nM; in assay [4], 500 to 1000 nM; in assay [5], 1000 to 10000 nM; in assay [6], less than 500 nM. This compound yielded an IC50 in assay [7] of less than 500 nM.

In the case of `COC(=O)c1cc(-c2csc3c(=O)cc(N4CCOCC4)oc23)ccc1Nc1ncc2cc(C(=O)N(C)C)n(C3CCCC3)c2n1` [Compound 11], the IC50 was less than 500 nM in assay [1]; 1000 to 10000 nM in assay [2]; less than 500 nM in assay [3]; less than 500 nM in assay [4]; 1000 to 10000 nM in assay [5]; more than 45000 nM in assay [6]. In assay [7], this compound gave an IC50 of more than 45000 nM.

`CN(C)C(=O)c1cc2cnc(Nc3csc4c(=O)cc(N5CCOCC5)oc34)nc2n1C1CCCC1` [Compound 12]: the IC50 is 10000 to 45000 nM in assay [1]; 10000 to 45000 nM in assay [2]; 1000 to 10000 nM in assay [3]; less than 500 nM in assay [4]; more than 45000 nM in assay [5]; 1000 to 10000 nM in assay [6]. This compound came in with an IC50 in assay [7] of more than 45000 nM.

`CN(C)C(=O)c1cc2cnc(Nc3ccc(-c4csc5c(=O)cc(N6CCOCC6)oc45)cc3C(=O)O)nc2n1C1CCCC1` [Compound 13]: the IC50 in assay [1] is 500 to 1000 nM; in assay [2], 500 to 1000 nM; in assay [3], less than 500 nM; in assay [4], less than 500 nM; in assay [5], 500 to 1000 nM; in assay [6], more than 45000 nM. The compound further came in with an IC50 in assay [7] of more than 45000 nM.

For the compound `CN(C)C(=O)c1cc2cnc(Nc3ccc(-c4csc5c(=O)cc(N6CCOCC6)oc45)c(C(=O)O)c3)nc2n1C1CCCC1` [Compound 14], the IC50 in assay [1] was more than 45000 nM; in assay [2] it was 10000 to 45000 nM; in assay [3] it was less than 500 nM; in assay [4], less than 500 nM; in assay [5], less than 500 nM; in assay [6], 10000 to 45000 nM. In assay [7], the IC50 fell in the range of 10000 to 45000 nM.

For `CN(C)C(=O)c1cc2cnc(Nc3ccc(-c4csc5c(=O)cc(N6CCOCC6)oc45)c(C(=O)O)c3)nc2n1C1CCCC1` [Compound 15], the IC50 in assay [1] was 10000 to 45000 nM; in assay [2] it was 10000 to 45000 nM; in assay [3] it was less than 500 nM; in assay [4], less than 500 nM; in assay [5], 1000 to 10000 nM; in assay [6], 1000 to 10000 nM. Moreover, in assay [7], the IC50 was 500 to 1000 nM.

Regarding `CNC(=O)c1cc2cnc(Nc3ccc(-c4csc5c(=O)cc(N6CCOCC6)oc45)cc3)nc2n1C1CCCC1` [Compound 16], the IC50 in assay [1] was less than 500 nM; in assay [2], less than 500 nM; in assay [3], less than 500 nM; in assay [4], less than 500 nM; in assay [5], 1000 to 10000 nM; in assay [6], less than 500 nM. In assay [7], this compound gave an IC50 of less than 500 nM.

Turning to `CNC(=O)c1cc2cnc(Nc3ccc(C#Cc4csc5c(=O)cc(N6CCOCC6)oc45)cc3)nc2n1C1CCCC1` [Compound 17], the IC50 was 1000 to 10000 nM in assay [1]; 10000 to 45000 nM in assay [2]; less than 500 nM in assay [3]; less than 500 nM in assay [4]; 500 to 1000 nM in assay [5]; less than 500 nM in assay [6]. The IC50 in assay [7] was less than 500 nM.

Consider `CN(C)C(=O)c1cc2cnc(Nc3cccc(-c4csc5c(=O)cc(N6CCOCC6)oc45)c3)nc2n1C1CCCC1` [Compound 18], for which the IC50 in assay [1] is 1000 to 10000 nM; in assay [2], 500 to 1000 nM; in assay [3], 500 to 1000 nM; in assay [4], less than 500 nM; in assay [5] it was 1000 to 10000 nM; in assay [6], less than 500 nM. Also, the IC50 in assay [7] was less than 500 nM.

As for `CN(C)C(=O)c1cc2cnc(Nc3cncc(-c4csc5c(=O)cc(N6CCOCC6)oc45)c3)nc2n1C1CCCC1` [Compound 19], the IC50 is 1000 to 10000 nM in assay [1]; 1000 to 10000 nM in assay [2]; 500 to 1000 nM in assay [3]; less than 500 nM in assay [4]; 1000 to 10000 nM in assay [5]; less than 500 nM in assay [6]. In assay [7], this compound returned an IC50 of less than 500 nM.

Regarding `CN(C)C(=O)c1cc2cnc(Nc3cc(C(=O)O)cc(-c4csc5c(=O)cc(N6CCOCC6)oc45)c3)nc2n1C1CCCC1` [Compound 20], the IC50 is 10000 to 45000 nM in assay [1]; more than 45000 nM in assay [2]; 1000 to 10000 nM in assay [3]; 1000 to 10000 nM in assay [4]; more than 45000 nM in assay [5]; 10000 to 45000 nM in assay [6]. The compound also yielded an IC50 in assay [7] of more than 45000 nM.

For the compound `CN(C)C(=O)c1cc2cnc(N(c3cncc(-c4csc5c(=O)cc(N6CCOCC6)oc45)c3)c3ncc4cc(C(=O)N(C)C)n(C5CCCC5)c4n3)nc2n1C1CCCC1` [Compound 21], the IC50 is 1000 to 10000 nM in assay [1]; 1000 to 10000 nM in assay [2]; 1000 to 10000 nM in assay [3]; 1000 to 10000 nM in assay [4]; 10000 to 45000 nM in assay [5]; less than 500 nM in assay [6]. The IC50 in assay [7] was 500 to 1000 nM.

With `CN(C)C(=O)c1cc2cnc(N3CCOc4cc(-c5csc6c(=O)cc(N7CCOCC7)oc56)ccc43)nc2n1C1CCCC1` [Compound 24], the IC50 was less than 500 nM in assay [3], less than 500 nM in assay [4], 1000 to 10000 nM in assay [5] and more than 45000 nM in assay [6].
